Results as given in ChEMBL document CHEMBL3813626, “Synthesis, antimalarial properties and 2D-QSAR studies of novel triazole-quinine conjugates” (Bioorg Med Chem, 2016).

These molecules were tested on Plasmodium falciparum (assay: Antimalarial activity against blood stage Plasmodium falciparum 3D7 infected in human erythrocytes assessed as reduction in parasitemia after 72 hrs by SYBR green I fluorescence-based method). Conditions: 3D7, 72 h.
Assay type: functional, organism-based

Structure (SMILES)	IC50 [nM]
C=C[C@H]1CN2CC[C@H]1C[C@@H]2[C@H](OCc1cn(Cc2ccccc2)nn1)c1ccnc2ccc(OC)cc12	790
C=C[C@H]1CN2CC[C@H]1C[C@@H]2[C@H](OCc1cn([C@@H](CC(C)C)C(=O)O)nn1)c1ccnc2ccc(OC)cc12	31000
C=C[C@H]1CN2CC[C@H]1C[C@@H]2[C@H](OCc1cn([C@H](C(=O)N(CC)CC)C(C)C)nn1)c1ccnc2ccc(OC)cc12	880
C=C[C@H]1CN2CC[C@H]1C[C@@H]2[C@H](OCc1cn([C@H](C(=O)O)C(C)C)nn1)c1ccnc2ccc(OC)cc12	20000
C=C[C@H]1CN2CC[C@H]1C[C@@H]2[C@H](OCc1cn(-c2cccc(C#N)c2)nn1)c1ccnc2ccc(OC)cc12	2000
C=C[C@H]1CN2CC[C@H]1C[C@@H]2[C@H](OCCc1cn(-c2ccc(Cl)cc2)nn1)c1ccnc2ccc(OC)cc12	41
C=C[C@H]1CN2CC[C@H]1C[C@@H]2[C@H](OCc1cn(CC(=O)N[C@@H](Cc2ccccc2)C(=O)O)nn1)c1ccnc2ccc(OC)cc12	5500
C=C[C@H]1CN2CC[C@H]1C[C@@H]2[C@H](OCCc1cn(-c2ccc(C)cc2)nn1)c1ccnc2ccc(OC)cc12	40
C=C[C@H]1CN2CC[C@H]1C[C@@H]2[C@H](OCCc1cn(-c2ccc(OC)cc2)nn1)c1ccnc2ccc(OC)cc12	43
C=C[C@H]1CN2CC[C@H]1C[C@@H]2[C@H](OCc1cn(CC(=O)N[C@@H](CC(C)C)C(=O)O)nn1)c1ccnc2ccc(OC)cc12	12000
C=C[C@H]1CN2CC[C@H]1C[C@@H]2[C@H](OCCc1cn(Cc2ccccc2)nn1)c1ccnc2ccc(OC)cc12	30
C=C[C@H]1CN2CC[C@H]1C[C@@H]2[C@H](OCCc1cn(CCCc2ccccc2)nn1)c1ccnc2ccc(OC)cc12	27
C=C[C@H]1CN2CC[C@H]1C[C@@H]2[C@H](OCCc1cn(-c2ccccc2[N+](=O)[O-])nn1)c1ccnc2ccc(OC)cc12	3300
C=C[C@H]1CN2CC[C@H]1C[C@@H]2[C@H](OCc1cn(-c2ccccc2[N+](=O)[O-])nn1)c1ccnc2ccc(OC)cc12	1300
C=C[C@H]1CN2CC[C@H]1C[C@@H]2[C@H](OCc1cn(-c2ccccn2)nn1)c1ccnc2ccc(OC)cc12	5700
C=C[C@H]1CN2CC[C@H]1C[C@@H]2[C@H](OCc1cn(-c2ccc(Cl)cc2)nn1)c1ccnc2ccc(OC)cc12	900

Structure (SMILES)	IC50 [nM]
C=C[C@H]1CN2CC[C@H]1C[C@@H]2[C@H](OCc1cn(-c2ccccc2C#N)nn1)c1ccnc2ccc(OC)cc12	1000
C=C[C@H]1CN2CC[C@H]1C[C@@H]2[C@H](OCc1cn(Cc2ccc([N+](=O)[O-])cc2)nn1)c1ccnc2ccc(OC)cc12	1200
C=C[C@H]1CN2CC[C@H]1C[C@@H]2[C@H](OCc1cn(CC(OC)OC)nn1)c1ccnc2ccc(OC)cc12	3400
C=C[C@H]1CN2CC[C@H]1C[C@@H]2[C@H](OCc1cn([C@@H](Cc2ccccc2)C(=O)O)nn1)c1ccnc2ccc(OC)cc12	7700
C=C[C@H]1CN2CC[C@H]1C[C@@H]2[C@H](OCCc1cn(-c2ccccc2Cl)nn1)c1ccnc2ccc(OC)cc12	37
C=C[C@H]1CN2CC[C@H]1C[C@@H]2[C@H](OCCc1cn(-c2ccc([N+](=O)[O-])cc2)nn1)c1ccnc2ccc(OC)cc12	345
C=C[C@H]1CN2CC[C@H]1C[C@@H]2[C@H](OCc1cn(-c2ccccc2Cl)nn1)c1ccnc2ccc(OC)cc12	20000
C=C[C@H]1CN2CC[C@H]1C[C@@H]2[C@H](OCc1cn([C@@H](C)C(=O)O)nn1)c1ccnc2ccc(OC)cc12	41000
C=C[C@H]1CN2CC[C@H]1C[C@@H]2[C@H](OCc1cn(Cn2nnc3ccccc32)nn1)c1ccnc2ccc(OC)cc12	4800
C=C[C@H]1CN2CC[C@H]1C[C@@H]2[C@H](OCc1cn([C@@H](Cc2c[nH]c3ccccc23)C(=O)O)nn1)c1ccnc2ccc(OC)cc12	8400
C=C[C@H]1CN2CC[C@H]1C[C@@H]2[C@H](OCc1cn(-c2ccc(OC)cc2)nn1)c1ccnc2ccc(OC)cc12	2200
C=C[C@H]1CN2CC[C@H]1C[C@H]2[C@H](O)c1ccnc2ccc(OC)cc12 [QUININE]	58
C=C[C@H]1CN2CC[C@H]1C[C@@H]2[C@H](OCc1cn(-c2ccc([N+](=O)[O-])cc2)nn1)c1ccnc2ccc(OC)cc12	640
C=C[C@H]1CN2CC[C@H]1C[C@@H]2[C@H](OCc1cn(CCCc2ccccc2)nn1)c1ccnc2ccc(OC)cc12	890
C=C[C@H]1CN2CC[C@H]1C[C@@H]2[C@H](OCc1cn(Cc2ccc(C)cc2)nn1)c1ccnc2ccc(OC)cc12	450
C=C[C@H]1CN2CC[C@H]1C[C@@H]2[C@H](OCc1cn(/C=C/n2nnc3ccccc32)nn1)c1ccnc2ccc(OC)cc12	1500
